Experimental data: ChEMBL document CHEMBL1122811, “Structure-activity studies on antidepressant 2,2-diarylethylamines” (J Med Chem, 1984)
Calls of active or inactive are those of the source.

Columns and labels:
Mus musculus [1] = experiment: Antidepressant activity measured by tetrabenazine (TBZ) induced ptosis in mice after intraperitoneal administration; format: functional; conditions: ip
Mus musculus [2] = species: Mus musculus; experiment: Antidepressant activity measured by effects on […] (TBZ) inhibited exploratory activity.; format: functional
Mus musculus [3] = experiment: Antidepressant activity measured by maximal electroshock seizure threshold (MEST) assay in TBZ treated mice after ip administration; format: functional
Mus musculus [4] = experiment: Antidepressant activity measured by maximal electroshock seizure threshold (MEST) assay in untreated mice after ip administration; format: functional
[5] = Compound was evaluated for 50% lethal dose in mice; LD50 range is 30-100; format: ADME, organism-based; conditions: mouse, in vivo
Mus musculus [6] = experiment: Compound was evaluated for antidepressant activity measured by tetrabenazine (TBZ) induced exploratory activity in mice after 30 mg/kg intraperitoneal administration; Inactive; format: functional, organism-based; design: dose 30 mg/kg
Mus musculus [7] = experiment: Compound was evaluated for antidepressant activity measured by tetrabenazine (TBZ) induced ptosis in mice after 10 mg/kg intraperitoneal administration; Inactive; format: functional, organism-based; design: dose 10 mg/kg
[8] = Compound was evaluated for 50% lethal dose in mice; LD50 range 300-1000 mg/kg; format: ADME, organism-based; conditions: mouse, in vivo
Mus musculus [9] = experiment: Meso form was evaluated for antidepressant activity measured by tetrabenazine (TBZ) induced exploratory activity in mice after intraperitoneal administration; format: functional; conditions: ip
Mus musculus [10] = experiment: dl form was evaluated for antidepressant activity measured by tetrabenazine (TBZ) induced exploratory activity in mice after intraperitoneal administration; format: functional; conditions: ip
Mus musculus [11] = experiment: Meso form was evaluated for antidepressant activity measured by tetrabenazine (TBZ) induced ptosis in mice after intraperitoneal administration (Two diastereomers (7/6) were present); format: functional; conditions: ip
Mus musculus [12] = experiment: dl form was evaluated for antidepressant activity measured by tetrabenazine (TBZ) induced ptosis in mice after intraperitoneal administration; format: functional; conditions: ip
Mus musculus [13] = experiment: Compound was evaluated for antidepressant activity measured by tetrabenazine (TBZ) induced exploratory activity in mice after 30 mg/kg intraperitoneal administration; inactive; format: functional, organism-based; design: dose 30 mg/kg
Mus musculus [14] = experiment: Compound was evaluated for antidepressant activity measured by tetrabenazine (TBZ) induced ptosis in mice after 30 mg/kg intraperitoneal administration; inactive; format: functional, organism-based; design: dose 30 mg/kg
[15] = Compound was evaluated for 50% lethal dose in mice; LD50 range 30-100 mg/kg; format: ADME, organism-based; conditions: mouse, in vivo
[16] = Compound was evaluated for 50% lethal dose in mice; LD50 range is 100-300; format: ADME, organism-based; conditions: mouse, in vivo
Mus musculus [17] = experiment: Compound was evaluated for antidepressant activity measured by tetrabenazine (TBZ) induced ptosis in mice after 30 mg/kg intraperitoneal administration; Inactive; format: functional, organism-based; design: dose 30 mg/kg
Mus musculus [18] = experiment: Compound was evaluated for antidepressant activity measured by tetrabenazine (TBZ) induced ptosis in mice after 60 mg/kg intraperitoneal administration; inactive; format: functional, organism-based; design: dose 60 mg/kg
Mus musculus [19] = experiment: Compound was evaluated for antidepressant activity measured by tetrabenazine (TBZ) induced exploratory activity in mice after 60 mg/kg intraperitoneal administration; inactive; format: functional, organism-based; design: dose 60 mg/kg
Mus musculus [20] = experiment: Compound was evaluated for antidepressant activity measured by tetrabenazine (TBZ) induced exploratory activity in mice after 60 mg/kg intraperitoneal administration; Inactive; format: functional, organism-based; design: dose 60 mg/kg
Mus musculus [21] = experiment: Compound was evaluated for antidepressant activity measured by tetrabenazine (TBZ) induced ptosis in mice after intraperitoneal administration; Lethal at 60 Mg/kg; format: functional; conditions: ip
Mus musculus [22] = experiment: Compound was evaluated for antidepressant activity measured by tetrabenazine (TBZ) induced ptosis in mice after 30 mg/kg intraperitoneal administration; format: functional; conditions: ip
Mus musculus [23] = experiment: Compound was evaluated for antidepressant activity measured by tetrabenazine (TBZ) induced exploratory activity in mice after 30 mg/kg intraperitoneal administration; format: functional; conditions: ip
[24] = Compound was evaluated for 50% lethal dose in mice; LD50 range 100-300 mg/kg; format: ADME, organism-based; conditions: mouse, in vivo

| Structure (SMILES) | ED50 (Mus musculus [1]) [mg/kg] | ED50 (Mus musculus [2]) [mg/kg] | ED50 (Mus musculus [3]) [mg/kg] | ED50 (Mus musculus [4]) [mg/kg] | further results |
| --- | --- | --- | --- | --- | --- |
| CC(N)C(c1ccccc1)c1ccccc1 (configuration not stated) | 3.8 | 3.5 | – | – | – |
| CCNCCC(c1ccccc1)c1ccccc1 | 23 | 15 | – | – | – |
| CN(C)CCCN1c2ccccc2CCc2ccccc21 [IMIPRAMINE] | 0.9 | 1.3 | 14.9 | 20.3 | – |
| CNCC(c1ccccc1)c1ccccc1 | 2.3 | 5 | 9 | 8.2 | LD50 [5]: 30 mg/kg |
| NCC(F)(c1ccccc1)c1ccccc1 | – | – | – | – | ED50 (Mus musculus [6]): inactive; ED50 (Mus musculus [7]): inactive |
| OCCN(CCO)CCc1ccccc1 | 12 | 17 | > 50 | > 50 | LD50 [8]: 1000 mg/kg |
| CC(O)CN(CC(C)O)CC(c1ccccc1)c1ccccc1 (configuration not stated) | – | – | – | – | ED50 (Mus musculus [9]): 18 mg/kg; ED50 (Mus musculus [10]): 11 mg/kg; ED50 (Mus musculus [11]): 7 mg/kg; ED50 (Mus musculus [12]): 6 mg/kg |
| COc1ccc(C(CN)c2ccccc2)cc1OC (configuration not stated) | – | – | – | – | ED50 (Mus musculus [13]): inactive; ED50 (Mus musculus [14]): inactive |
| NCC(O)(c1ccccc1)c1ccccc1 | 6 | 9 | 9.9 | 8.1 | LD50 [15]: 100 mg/kg |
| NCC(c1ccccc1)c1ccccc1 | 1.7 | 1.8 | > 15 | 10 | LD50 [5]: 30 mg/kg |
| COc1ccc(C(CN(C)C)c2ccccc2)cc1OC (configuration not stated) | 14 | – | – | – | ED50 (Mus musculus [13]): inactive |
| c1ccc2c(c1)cc1n2CCCNC1 [AZEPINDOLE] | 9 | 11 | 32 | 46 | LD50 [16]: 100 mg/kg |
| CN(C)CC(c1ccc(Cl)cc1)c1ccc(Cl)cc1 | 16 | 11 | – | – | – |
| OCCN(CCO)C(Cc1ccccc1)c1ccccc1 (configuration not stated) | – | – | – | – | ED50 (Mus musculus [13]): inactive; ED50 (Mus musculus [14]): inactive |
| CNCC(c1ccccc1)c1ccc(OC)c(OC)c1 (configuration not stated) | 11 | > 30 | – | – | – |
| OCCN(CCO)CC(c1cccs1)c1cccs1 | – | – | – | – | ED50 (Mus musculus [13]): inactive; ED50 (Mus musculus [14]): inactive |
| NCC(c1ccc(Cl)cc1)c1ccc(Cl)cc1 | – | – | – | – | ED50 (Mus musculus [6]): inactive; ED50 (Mus musculus [17]): inactive |
| CN(C)CC(c1ccccc1)c1ccccc1 | 2.5 | 9 | 3 | 7 | LD50 [5]: 100 mg/kg |
| COc1ccc(C(CN)c2ccc(OC)c(OC)c2)cc1OC | – | – | – | – | ED50 (Mus musculus [18]): inactive; ED50 (Mus musculus [19]): inactive |
| CC(=O)OCCN(CCOC(C)=O)CC(c1ccccc1)c1ccccc1 | 13 | 23 | – | – | – |
| COc1ccc(C(CN)c2ccc(OC)cc2)cc1 | – | – | – | – | ED50 (Mus musculus [20]): inactive; ED50 (Mus musculus [21]): > 10 mg/kg |
| CNCC(c1ccc(Cl)cc1)c1ccc(Cl)cc1 | – | – | – | – | ED50 (Mus musculus [22]): 13 mg/kg; ED50 (Mus musculus [23]): 14 mg/kg |
| OCCN(CCO)CC(c1ccccc1)C1CCCCC1 (configuration not stated) | 22 | ~50 | – | – | – |
| COc1ccc(C(CN(CCO)CCO)c2ccccc2)cc1OC (configuration not stated) | – | – | – | – | ED50 (Mus musculus [18]): inactive; ED50 (Mus musculus [19]): inactive |
| OCCN(CCO)CC(O)(c1ccccc1)c1ccccc1 | 8 | 80 | – | – | – |
| OCCN(CCO)CCC(c1ccccc1)c1ccccc1 | 20 | 24 | – | – | – |
| COc1ccc(C(CN(CCO)CCO)c2ccc(OC)c(OC)c2)cc1OC | – | – | – | – | ED50 (Mus musculus [18]): inactive; ED50 (Mus musculus [19]): inactive |
| CCN(CCO)CCC(c1ccccc1)c1ccccc1 | 1.9 | 10 | 21.4 | > 25 | LD50 [24]: 300 mg/kg |
| COc1ccc(C(CN(CCO)CCO)c2ccc(OC)cc2)cc1 | – | – | – | – | ED50 (Mus musculus [18]): inactive; ED50 (Mus musculus [19]): inactive |
| OCCN(CCO)CC(c1ccccc1)c1ccccc1 | 2 | – | 15.4 | 20.3 | LD50 [24]: 300 mg/kg |
